Experimental data published in BindingDB's records for doi:10.1016/j.bmcl.2014.09.001 (University of Pittsburgh, 2014).

Experiments:
[1] = target: T1, Signal transducer and activator of transcription 1-alpha/beta (Homo sapiens, UniProt P42224); experiment: Inhibition of IFNgamma-induced STAT1 phosphorylation in human Cal33 cells by Western blot analysis
T1 sequence (P42224 whole entry): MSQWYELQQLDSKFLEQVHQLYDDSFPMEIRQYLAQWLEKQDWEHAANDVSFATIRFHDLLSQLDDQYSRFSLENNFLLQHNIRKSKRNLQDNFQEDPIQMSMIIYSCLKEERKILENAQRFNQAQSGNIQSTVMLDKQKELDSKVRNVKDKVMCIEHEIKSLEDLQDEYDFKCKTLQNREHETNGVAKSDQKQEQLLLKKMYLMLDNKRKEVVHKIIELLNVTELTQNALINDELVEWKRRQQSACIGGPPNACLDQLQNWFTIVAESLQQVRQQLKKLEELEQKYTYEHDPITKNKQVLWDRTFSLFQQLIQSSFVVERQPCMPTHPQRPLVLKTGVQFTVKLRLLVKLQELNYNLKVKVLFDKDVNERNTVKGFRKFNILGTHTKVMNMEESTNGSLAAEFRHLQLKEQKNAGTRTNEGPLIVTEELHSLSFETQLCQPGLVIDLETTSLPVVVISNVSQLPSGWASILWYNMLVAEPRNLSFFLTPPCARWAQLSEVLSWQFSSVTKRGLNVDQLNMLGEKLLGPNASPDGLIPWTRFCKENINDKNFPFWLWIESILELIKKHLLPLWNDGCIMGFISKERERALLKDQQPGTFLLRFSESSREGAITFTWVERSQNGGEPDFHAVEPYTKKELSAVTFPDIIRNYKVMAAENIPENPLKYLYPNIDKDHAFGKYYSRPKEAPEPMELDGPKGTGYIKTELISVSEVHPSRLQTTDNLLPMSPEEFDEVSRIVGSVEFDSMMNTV

[2] = Inhibition of IL-6-induced STAT3 phosphorylation in human Cal33 cells assessed as nuclear translocation by Western blot analysis

Row | Structure (SMILES) | IC50 [1] | IC50 [2]
1 | Cc1nc(NC2CCCCC2)nc2ccccc12 | > 30 µM | 
2 | Cc1cc(=O)nc(Nc2nc(C)c3cc(C)c(C)cc3n2)[nH]1 | > 50 µM | 
3 | CCOc1ccc2nc(Nc3nc(=O)cc(C)[nH]3)nc(C)c2c1 | > 50 µM | 
4 | Cc1nc(NCCN2CCOCC2)nc2ccccc12 | > 30 µM | > 30 µM
5 | Cc1ccc2c(C)nc(Nc3nc(=O)c(C)c(C)[nH]3)nc2c1 | 35.2 µM | 
6 | CC1=CC(C)(C)N=C(Nc2nc(C)c3cc(C)ccc3n2)N1 | > 50 µM | 
7 | CCOc1ccc2nc(NC3=NC(C)=CC(C)(C)N3)nc(C)c2c1 | > 50 µM | 
8 | Cc1nc(NCCc2c[nH]c3ccccc23)nc2ccccc12 | > 30 µM | > 30 µM
9 | Cc1ccc2c(C)nc(Nc3nc(=O)cc(C)[nH]3)nc2c1 | 39.7 µM | 
10 | Cc1ccc(CNc2nc(C)c3ccccc3n2)o1 | > 30 µM | 
11 | Cc1nc(NCc2cccc3ccccc23)nc2ccccc12 | > 30 µM | 
12 | Cc1nc(Nc2nc(=O)cc(-c3ccccc3)[nH]2)nc2cc3c(cc12)OCO3 | > 50 µM | 13 µM
13 | CCOc1ccc2nc(Nc3nc(=O)c(C)c(C)[nH]3)nc(C)c2c1 | > 50 µM | 
14 | Cc1cc(C)c2nc(Nc3nc(=O)cc(-c4ccccc4)[nH]3)nc(C)c2c1 | > 50 µM | 
15 | CCOc1ccc2c(C)nc(NC3=NC(C)=CC(C)(C)N3)nc2c1 [DNDI1417388] | > 50 µM | 
16 | Cc1nc(Nc2ccccn2)nc2ccccc12 | > 30 µM | 
17 | Cc1nc(Nc2ccccc2)nc2ccccc12 | > 30 µM | 
18 | COc1ccc2nc(Nc3nc(=O)c(Cc4ccccc4)c(C)[nH]3)nc(C)c2c1 | 50 µM | 
19 | Cc1nc(NCc2ccccc2)nc2ccccc12 | > 30 µM | > 30 µM
20 | CC1=CC(C)(C)N=C(Nc2nc(C)c3cc(C)cc(C)c3n2)N1 [US9211296, Table 7, Compd: 9] | 5.9 µM | 
21 | Cc1nc(NCc2ccc3c(c2)OCO3)nc2ccccc12 | > 30 µM | > 30 µM
22 | COc1ccc2nc(Nc3nc(=O)cc(C)[nH]3)nc(C)c2c1 | > 50 µM | 34.9 µM
23 | C=CCc1c(C)[nH]c(Nc2nc(C)c3cc(C)cc(C)c3n2)nc1=O | > 50 µM | 
24 | Cc1[nH]c(Nc2nc(C)c3cc4c(cc3n2)OCO4)nc(=O)c1C | > 50 µM | > 50 µM
25 | Cc1cc(C)c2nc(Nc3nc(C)c(C)c(O)n3)nc(C)c2c1 | > 50 µM | 6.4 µM
26 | Cc1cc2nc(Nc3nc(=O)c(C)c(C)[nH]3)nc(C)c2cc1C | > 50 µM | 10.4 µM
27 | Cc1[nH]c(Nc2nc(C)c3cc4c(cc3n2)OCO4)nc(=O)c1Cc1ccccc1 | > 50 µM | > 50 µM
28 | Cc1cc(=O)nc(Nc2nc(C)c3cc4c(cc3n2)OCO4)[nH]1 | > 50 µM | > 50 µM
29 | CCOc1ccc2nc(Nc3nc(=O)cc(-c4ccccc4)[nH]3)nc(C)c2c1 | > 50 µM | 
30 | COc1ccc2c(C)nc(Nc3nc(C)cc(O)n3)nc2c1 | > 50 µM | 
